This note sets out measurements from US7192731B2, “Methods for efficient extraction of carotenoids using an esterase” (The State of Israel, Ministry of Agriculture & Rural …, priority 2001, dated 2007).

For one experiment, the system named is lipase. The experiment can be described thus: Effect of CaCl2 and NaCl on lipase activity (deestrification of red-pepper carotenoids). Type of experiment: biochemical. To be noted: 150 mM NaCl without CaCl2. The protocol:
The activity of lipase at pH 7.6 at 37.0° C. for 18 hours on the deestrification of red-pepper carotenoids was measured in the presence of CaCl2 and NaCl.

Experiment [1] in a line: Enzymatic deesterification of paprika oleoresin carotenoids by lipases, HPLC. The settings on record: similar assays, 37° C. Type of experiment: biochemical. The protocol:
HPLC was conducted on a Shimadzu LC-10 AT equipped with SCL-10A Shimadzu diode array detector. Photodiode array measurements of spectral properties from the individual peaks (from 260 to 540 nm) were determined at the upslope, apex and downslope. The column (Merck RP-18e 3.4×250 […], 5-μm particles) was used for HPLC separations. The peaks were detected at 450 and 474 nm.
Paprika oleoresin (20 mg) was mixed with TWEEN-20 (200 μl) or deoxycholate (100 mg) and 10 ml of H2O. The emulsion has been shaken at 37° C. for 24 hours. Extraction of carotenoids was performed by the addition of 4 ml of ethanol and 5 ml of hexane. The extraction with hexane was done repeatedly until no color could be observed in the extracts. The combined hexane extracts were washed with water (25 ml) and dried over anhydrous sodium sulfate for HPLC determination of the carotenoids.
Immobilized lipase from Candida rugosa (Sigma-Aldrich Corp., St Louis, Mo.). Following use in deesterification, the enzyme-bearing beads are recovered by precipitation at 15 K RPM, and stored at 4° C. until reuse.
Immobilized lipase beads may be recycled by precipitation, and reused. […] FIG. 8 compares the efficiency of deesterification with fresh, once-, and twice-recycled immobilized lipase, quantifying the efficient reuse of the immobilized enzyme with paprika oleoresin. […]

The molecule `[Cl-].[Na+]` [NaCl] came in with a deestrification with lipase of 87%.

B1: pancreatic lipase: pancreatic lipase from porcine, Sigma (protein, UniProt P00591 1-450, looked up)
Pancreatic triacylglycerol …: SEVCFPRLGCFSDDAPWAGIVQRPLKILPWSPKDVDTRFLLYTNQNQNNYQELVADPSTITNSNFRMDRKTRFIIHGFIDKGEEDWLSNICKNLFKVESVNCICVDWKGGSRTGYTQASQNIRIVGAEVAYFVEVLKSSLGYSPSNVHVIGHSLGSHAAGEAGRRTNGTIERITGLDPAEPCFQGTPELVRLDPSDAKFVDVIHTDAAPIIPNLGFGMSQTVGHLDFFPNGGKQMPGCQKNILSQIVDIDGIWEGTRDFVACNHLRSYKYYADSILNPDGFAGFPCDSYNVFTANKCFPCPSEGCPQMGHYADRFPGKTNGVSQVFYLNTGDASNFARWRYKVSVTLSGKKVTGHILVSLFGNEGNSRQYEIYKGTLQPDNTHSDEFDSDVEVGDLQKVKFIWYNNNVINPTLPRVGASKITVERNDGKVYDFCSQETVREEVLLTLNPC
Turning to B1, in experiment [1], the “deesterification of paprika carotenoids compared with lipase amano 30” value is on record as “far poorer results”.
